According to patent US20220227763A1, “MICROBIOCIDAL DERIVATIVES” (SYNGENTA CROP PROTECTION AG, priority 2019, published 2022):

Legend:
[1] = test system: Mycosphaerella graminicola (Septoria tritici); test: Mycosphaerella graminicola (Septoria tritici) / liquid culture (Septoria blotch); format: cell-based; details: Zymoseptoria tritici, growth inhibition determined photometrically 4-5 days after application, compared to untreated control
Method: Example B5: Mycosphaerella graminicola (Septoria tritici)/Liquid Culture (Septoria blotch) Conidia of the fungus from cryogenic storage are directly mixed into nutrient broth (PDB potato dextrose broth). After placing a (DMSO) solution of test compound into a microtiter plate (96-well format), the nutrient broth containing the fungal spores is added. The test plates are incubated at 24° C. and the inhibition of growth is determined photometrically 4-5 days after application. […] […]-19.

Structure (SMILES): CC1(C)CCC1NC(=O)c1nc(Nc2cc(F)cc(F)c2)cc2cc[nH]c12 (stereo not shown) [Compound P-1, 5-(3,5-difluoroanilino)-N-(2,2-dimethylcyclobutyl)-1H-pyrrolo[2,3-c]pyridine-7-carboxamide]
- inhibition of growth at 20 ppm [1]: ≥ 80%
- melting point: 65 to 89 °C

Structure (SMILES): CC1(C)CCC1NC(=O)c1nc(Nc2cc(F)nc(F)c2)cc2cc[nH]c12 (stereo not shown) [Compound P-2, 5-[(2,6-difluoro-4-pyridyl)amino]-N-(2,2-dimethylcyclobutyl)-1H-pyrrolo[2,3-c]pyridine-7-carboxamide]
- inhibition of growth at 20 ppm [1]: ≥ 80%
- melting point: 115 to 148 °C

Structure (SMILES): Cn1cc(Nc2cc3cn[nH]c3c(C(=O)NC3CCC3(C)C)n2)cn1 (stereo not shown) [Compound P-4, N-(2,2-dimethylcyclobutyl)-5-[(1-methylpyrazol-4-yl)amino]-1H-pyrazolo[3,4-c]pyridine-7-carboxamide]
- melting point: 158 to 166 °C

Structure (SMILES): CC1(C)CCC1NC(=O)c1nc(Nc2cnsc2)cc2cn[nH]c12 (stereo not shown) [Compound P-5, N-(2,2-dimethylcyclobutyl)-5-(isothiazol-4-ylamino)-1H-pyrazolo[3,4-c]pyridine-7-carboxamide]
- inhibition of growth at 20 ppm [1]: ≥ 80%
- melting point: 158 to 166 °C

Structure (SMILES): CC1(C)CCC1NC(=O)c1nc(Nc2cc(F)cc(F)c2)cc2cn[nH]c12 (stereo not shown) [Compound P-6, 5-(3,5-difluoroanilino)-N-(2,2-dimethylcyclobutyl)-1H-pyrazolo[3,4-c]pyridine-7-carboxamide]
- inhibition of growth at 20 ppm [1]: ≥ 80%
- melting point: 167 to 176 °C

Structure (SMILES): CC1(C)CCC1NC(=O)c1nc(Nc2ccnc(F)c2)cc2cn[nH]c12 (stereo not shown) [Compound P-7, N-(2,2-dimethylcyclobutyl)-5-[(2-fluoro-4-pyridyl)amino]-1H-pyrazolo[3,4-c]pyridine-7-carboxamide]
- inhibition of growth at 20 ppm [1]: ≥ 80%
- melting point: 222 to 238 °C

Structure (SMILES): CC1(C)CCC1NC(=O)c1nc(Nc2cc(F)nc(F)c2)cc2cn[nH]c12 (stereo not shown) [Compound P-8, 5-[(2,6-difluoro-4-pyridyl)amino]-N-(2,2-dimethylcyclobutyl)-1H-pyrazolo[3,4-c]pyridine-7-carboxamide]
- inhibition of growth at 20 ppm [1]: ≥ 80%
- melting point: 240 to 250 °C

Structure (SMILES): CCCCCNC(=O)c1nc(Nc2cncc(F)c2)cc2cc[nH]c12 [Compound P-10, 5-[(5-fluoro-3-pyridyl)amino]-N-pentyl-1H-pyrrolo[2,3-c]pyridine-7-carboxamide]
- melting point: 158 to 162 °C

Structure (SMILES): CCCCCNC(=O)c1nc(Nc2cc(F)nc(F)c2)cc2cc[nH]c12 [Compound P-11, 5-[(2,6-difluoro-4-pyridyl)amino]-N-pentyl-1H-pyrrolo[2,3-c]pyridine-7-carboxamide]
- melting point: 220 to 233 °C

Structure (SMILES): CCCCCNC(=O)c1nc(Nc2cncc(F)c2)cc2cn[nH]c12 [Compound P-13, 5-[(5-fluoro-3-pyridyl)amino]-N-pentyl-1H-pyrazolo[3,4-c]pyridine-7-carboxamide]
- melting point: 155 to 168 °C

Structure (SMILES): O=C(NC1CCC12CCCC2)c1nc(Nc2cncc(F)c2)cc2cn[nH]c12 (stereo not shown) [Compound P-15, 5-[(5-fluoro-3-pyridyl)amino]-N-spiro[3.4]octan-3-yl-1H-pyrazolo[3,4-c]pyridine-7-carboxamide]
- melting point: 185 to 195 °C

Structure (SMILES): O=C(NC1CCC12CCCC2)c1nc(Nc2cncc(F)c2)cc2cc[nH]c12 (stereo not shown) [Compound P-17, 5-[(5-fluoro-3-pyridyl)amino]-N-spiro[3.4]octan-3-yl-1H-pyrrolo[2,3-c]pyridine-7-carboxamide]
- melting point: 180 to 191 °C

Structure (SMILES): O=C(NC1CCC12CCCC2)c1nc(Nc2cc(F)nc(F)c2)cc2cc[nH]c12 (stereo not shown) [Compound P-18, 5-[(2,6-difluoro-4-pyridyl)amino]-N-spiro[3.4]octan-3-yl-1H-pyrrolo[2,3-c]pyridine-7-carboxamide]
- inhibition of growth at 20 ppm [1]: ≥ 80%
- melting point: 170 to 178 °C

Structure (SMILES): O=C(NC1CCC12CCCC2)c1nc(Nc2cc(F)nc(F)c2)cc2cn[nH]c12 (stereo not shown) [Compound P-19, 5-[(2,6-difluoro-4-pyridyl)amino]-N-spiro[3.4]octan-3-yl-1H-pyrazolo[3,4-c]pyridine-7-carboxamide]
- inhibition of growth at 20 ppm [1]: ≥ 80%
- melting point: 168 to 180 °C
